This is an account of results in PubChem BioAssay AID180 (DTP/NCI, 2004).

Structures are written as SMILES. Where “and” joins values, the source holds several entries; their conditions need not be identical. Equal entries are not always repeated.

For the test, the system named is BDF1 mice, Adenocarcinoma 755 s.c., tumor weight T/C. The experiment in a line: NCI In Vivo Anticancer Drug Screen. Data for tumor model Adenocarcinoma 755 (subcutaneous) in B6D2F1 (BDF1) mice. To be noted: endpoint: mean tumor weight, schedule: Q01DX011 (ip), higher = larger tumour. Put shortly:
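Compound activity was tested in mice carrying transplanted tumors. Survival or tumor size was measured, and each value is the treated-group measurement divided by that of the vehicle-treated control group (T/C).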

Where [1] appears, read: dose: 2.5 mg/kg/injection, vehicle: saline.
[2] abbreviates: dose: 20.0 mg/kg/injection, vehicle: saline.
Setting [3] is: dose: 240.0 mg/kg/injection, vehicle: carboxymethylcellulose (CMC).

The T/C is the result in the treated group divided by that in the control group, in per cent. For `CC1([CH2][Hg][I])OCCOC1[CH2][Hg][I]` (stereo unspecified), the T/C runs as follows: under setting [1], 57 % of control; (dose: 5.0 mg/kg/injection, vehicle: saline) 71 % of control; (dose: 10.0 mg/kg/injection, vehicle: saline) 57 % of control; (dose: 10.9 mg/kg/injection, vehicle: saline) 36 % of control; (dose: 11.0 mg/kg/injection, vehicle: carboxymethylcellulose (CMC)) 87 % of control; under setting [2], 7 % of control.
In the case of `C[N+](C)(C)c1ncnc2nc[nH]c12`, the T/C is, setting by setting: (dose: 1.25 mg/kg/injection, vehicle: saline) 89 % of control and 77 % of control; under setting [1], 61 % of control and 75 % of control and 86 % of control; (dose: 11.25 mg/kg/injection, vehicle: saline) 44 % of control; under setting [2], 6 % of control and 12 % of control; (dose: 22.5 mg/kg/injection, vehicle: saline) 3 % of control; (dose: 40.0 mg/kg/injection, vehicle: saline) 1 % of control and 3 % of control. For the same compound, the T/C reads like this: (dose: 45.0 mg/kg/injection, vehicle: saline) 1 % of control; (dose: 80.0 mg/kg/injection, vehicle: saline) 1 % of control and 4 % of control; (dose: 90.0 mg/kg/injection, vehicle: saline) 1 % of control; (dose: 160.0 mg/kg/injection, vehicle: saline) 1 % of control and 3 % of control.
Consider `CN1C=NNc2ncnc(Cl)c21`, for which the T/C runs as follows: (dose: 125.0 mg/kg/injection, vehicle: carboxymethylcellulose (CMC)) 166 % of control; (dose: 250.0 mg/kg/injection, vehicle: carboxymethylcellulose (CMC)) 161 % of control.
Regarding `O=[N+]([O-])c1ccc(O)c([N+](=O)[O-])c1`, the T/C is, setting by setting: (dose: 3.35 mg/kg/injection, vehicle: carboxymethylcellulose (CMC)) 60 % of control; (dose: 3.92 mg/kg/injection, vehicle: carboxymethylcellulose (CMC)) 57 % of control; (dose: 6.7 mg/kg/injection, vehicle: carboxymethylcellulose (CMC)) 92 % of control; (dose: 7.85 mg/kg/injection, vehicle: carboxymethylcellulose (CMC)) 54 % of control; (dose: 13.4 mg/kg/injection, vehicle: carboxymethylcellulose (CMC)) 64 % of control; (dose: 15.7 mg/kg/injection, vehicle: carboxymethylcellulose (CMC)) 53 % of control. Moreover, the T/C by setting is: (dose: 26.8 mg/kg/injection, vehicle: carboxymethylcellulose (CMC)) 91 % of control; (dose: 31.4 mg/kg/injection, vehicle: carboxymethylcellulose (CMC)) 78 % of control.
Regarding `CNC=O`, the T/C by setting is: (dose: 4.41 mg/kg/injection, vehicle: carboxymethylcellulose (CMC)) 107 % of control; (dose: 8.82 mg/kg/injection, vehicle: carboxymethylcellulose (CMC)) 94 % of control; (dose: 17.65 mg/kg/injection, vehicle: carboxymethylcellulose (CMC)) 110 % of control; (dose: 42.88 mg/kg/injection, vehicle: carboxymethylcellulose (CMC)) 60 % of control; (dose: 45.0 mg/kg/injection, vehicle: carboxymethylcellulose (CMC)) 113 % of control; (dose: 85.75 mg/kg/injection, vehicle: carboxymethylcellulose (CMC)) 78 % of control. The T/C is, setting by setting: (dose: 90.0 mg/kg/injection, vehicle: carboxymethylcellulose (CMC)) 99 % of control; (dose: 93.67 mg/kg/injection, vehicle: carboxymethylcellulose (CMC)) 104 % of control; (dose: 137.2 mg/kg/injection, vehicle: carboxymethylcellulose (CMC)) 70 % of control; (dose: 144.0 mg/kg/injection, vehicle: carboxymethylcellulose (CMC)) 86 % of control; (dose: 180.0 mg/kg/injection, vehicle: carboxymethylcellulose (CMC)) 98 % of control; (dose: 187.35 mg/kg/injection, vehicle: carboxymethylcellulose (CMC)) 100 % of control and 111 % of control. The T/C is, setting by setting: (dose: 200.0 mg/kg/injection, vehicle: saline) 31 % of control; (dose: 228.6 mg/kg/injection, vehicle: carboxymethylcellulose (CMC)) 65 % of control; under setting [3], 101 % of control; (dose: 250.0 mg/kg/injection, vehicle: saline) 14 % of control; (dose: 300.0 mg/kg/injection, vehicle: saline) 1 % of control; (dose: 343.0 mg/kg/injection, vehicle: carboxymethylcellulose (CMC)) 20 % of control and 30 % of control. For the same compound, the T/C by setting is: (dose: 360.0 mg/kg/injection, vehicle: carboxymethylcellulose (CMC)) 30 % of control and 35 % of control; (dose: 374.7 mg/kg/injection, vehicle: carboxymethylcellulose (CMC)) 103 % of control.
Turning to `Cc1ccc(CNc2ncnc3c2cnn3C2CCCCO2)cc1` (stereo unspecified), the T/C by setting is: (dose: 18.7 mg/kg/injection, vehicle: methylcellulose (MC)) 109 % of control; (dose: 37.5 mg/kg/injection, vehicle: methylcellulose (MC)) 35 % of control; (dose: 75.0 mg/kg/injection, vehicle: methylcellulose (MC)) 88 % of control; (dose: 150.0 mg/kg/injection, vehicle: methylcellulose (MC)) 44 % of control.
On to `Cn1c(=O)c2c(nc(N/N=C/c3ccccc3Br)n2C)n(C)c1=O`, for which the T/C is, setting by setting: (dose: 30.0 mg/kg/injection, vehicle: carboxymethylcellulose (CMC)) 96 % of control; (dose: 120.0 mg/kg/injection, vehicle: carboxymethylcellulose (CMC)) 101 % of control; under setting [3], 89 % of control.
With `CCCCn1nnc2c(N)nc(N)nc21`, the T/C is 123 % of control (dose: 62.0 mg/kg/injection, vehicle: methylcellulose (MC)); 70 % of control (dose: 125.0 mg/kg/injection, vehicle: methylcellulose (MC)); 56 % of control (dose: 225.0 mg/kg/injection, vehicle: methylcellulose (MC)).
In the case of `C=C(Br)CN(CC)CCO`, under “dose: 50.0 mg/kg/injection, vehicle: other”, the T/C is 66 % of control.
As for `Cc1cc2nc3c(=O)[nH]c(=O)nc-3n(CCOC(=O)CCC(=O)O)c2cc1C`, the T/C (dose: 29.46 mg/kg/injection, vehicle: carboxymethylcellulose (CMC)) was 88 % of control; the T/C (dose: 40.0 mg/kg/injection, vehicle: carboxymethylcellulose (CMC)) was 91 % of control; the T/C (dose: 58.93 mg/kg/injection, vehicle: carboxymethylcellulose (CMC)) is 94 % of control; the T/C (dose: 80.0 mg/kg/injection, vehicle: carboxymethylcellulose (CMC)) is 122 % of control; the T/C (dose: 117.85 mg/kg/injection, vehicle: carboxymethylcellulose (CMC)) was 93 % of control; the T/C (dose: 126.0 mg/kg/injection, vehicle: carboxymethylcellulose (CMC)) is 107 % of control. Moreover, the T/C is, setting by setting: (dose: 160.0 mg/kg/injection, vehicle: carboxymethylcellulose (CMC)) 59 % of control; (dose: 235.7 mg/kg/injection, vehicle: carboxymethylcellulose (CMC)) 90 % of control; (dose: 252.0 mg/kg/injection, vehicle: carboxymethylcellulose (CMC)) 115 % of control.
